# Test results taken from patent publication US20020037829A1, “Use of DPPIV inhibitors as diuretic and anti-hypertensive agents” (priority 2000, published 2002).
# Tests used:
# Type in all cases: cell-based, opossum
# DPPIV = test: Colorimetric DPPIV enzyme assay with glycylproline p-nitroanilide tosylate as substrate in OKP cells; details: 1 mM Diprotin A
# Protocol: (§1) The concentration dependence for Diprotin A inhibition of DPPIV activity was first evaluated. […] Diprotin A inhibited EIPA-sensitive Na/H exchange activity by 36.7±5.3%. To test the specificity of this inhibition, activity of another brush border transport process, Cl^−-formate exchange, measured as Cl^− gradient-stimulated, DIDS-sensitive uptake of 14C-formate was assayed.
# Cl-formate exchange = test: Cl- gradient-stimulated, DIDS-sensitive 14C-formate uptake (Cl-formate exchange) in OKP cells; details: Diprotin A
# Protocol: as §1
# NHE3 = test: 22Na uptake assay of EIPA-sensitive Na/H exchange (NHE3) activity in OKP cells; details: 1 mM Diprotin A, 20 min pre-incubation in NH3/NH4+ buffer pH 7.4
# Excerpt: As an initial approach to examine the physiological role of the association of DPPIV with NHE3, Diprotin A, a specific competitive inhibitor that binds to the active site of DPPIV, affects NHE3 activity in OKP cells was studied. OKP is a line of opossum proximal tubule cells that has transport properties very similar to the native proximal tubule and is therefore commonly used as an in vitro model for the mammalian proximal tubule.
# as §1
substance,measurement,setting,value
Ile-Pro-Ile [Diprotin A],inhibition of DPPIV activity in OKP cells,DPPIV,completely inhibited
same,effect on Cl-formate exchange activity,Cl-formate exchange,no significant effect
same,inhibition of EIPA-sensitive Na/H exchange activity,NHE3,36.7±5.3%
